According to patent US20070037783A1, “Migrastatin analogs and uses thereof” (priority 2003, published 2007):
Read-outs that look alike come from different tables or passages of the source. Each block holds one compound with its values, some of them ahead of it.

Columns and labels:
[1] = rcm bond, Grubbs-II, toluene, 111.0 °C, 0.25 h
[2] = test system: 4T1 mouse breast tumor cells; experiment: Boyden chamber cell migration assay with 4T1 tumor cells; assay type: cell-based; conditions: for IC50: chamber cell migration, 6-8 h, average of three experiments, read-out: IC50 (4T1 tumor cells)
Protocol: The biological evaluation of the compounds (in terms of their ability to inhibit cell migration) was accomplished in a Boyden chamber cell migration assay. In this assay, mouse breast tumor cells (4T1 cells) or endothelial cells (HUVECs) are seeded on the upper chamber of a transwell insert. Growth factor-containing serum is added to the lower chamber.
Chamber Cell Migration Assay (Tables 4 and 6): Cell migrations were assayed with Boyden chambers [8.0 μm pore size, polyethylene terephthalate membrane, FALCON cell culture insert (Becton-Dickinson)]. 4T1 mouse breast tumor cells or HUVECs were trypsinized and counted. 300 μl of 5-10×10^4 cells in serum-free medium was added to the upper chamber and 500 μl of medium with 10% fetal bovine serum (FBS) was added to the lower chamber. […] Cells on the inside of the transwell inserts were removed with a cotton swab, and cells on the underside of the insert were fixed and stained. Photographs of three random regions were taken and the number of cells was counted to calculate the average number of cells that have transmigrated.

[3] = test system: adherent cells (e.g. KYSE-520 cells); experiment: Wound healing (scratch) assay (preliminary, Table 2); assay type: cell-based; conditions: 28 to 30 h, compared to 100 μM Migrastatin, tested 200, 100, 50, 25, 10 μM
Protocol: 2. Wound Healing Assay (Table 2)
The wound healing assay was performed based on the method described by Nakae et al. (Nakae et al., J. Antibiotics (2000), 53, 1130-1136). Briefly, adherent cells were grown in a suitable media to confluence (e.g. KYSE-520 cells in RPMI-1640 with 10% FBS). Cells were starved for 24 h in serum free media. A scratch (ca. 0.5 mm) was applied and the cell layer was washed twice with PBS after removal of the media. Fresh, serum free media with the test compound at the desired concentration was added and the cells were incubated for 28 to 30 h at 37° C., 5% CO2. The scratch size was compared to that observed for cells exposed to 100 μM Migrastatin. Test compounds associated with a scratch size equal to or larger than that observed for cells exposed to 100 μM Migrastatin were deemed to have cell migration inhibitory activity at least equal to Migrastatin.

HUVEC = experiment: Tube formation assay (preliminary, Table 1); assay type: cell-based, human; conditions: minimal concentration causing definite disturbance of tube network, 16-18 h, tested 200, 100, 50, 25, 10 μM
Protocol: 1. Tube Formation Assay (Table 1):
A protocol was designed based on the instructions from the provider (BD Bioscience, San Jose, Calif.). Briefly, wells of a 48 well culture dish were covert with 150 μL matrigel and the matrigel was gelatinized for 30 min at 37° C. A 80-90% confluent HUVEC (BD Bioscience, San Jose, Calif.) culture was trypsin treated, the detached cells were collected by centrifugation and resuspended in EGM-2 media (BD Bioscience, San Jose, Calif.). Cell concentration was adjusted to 100.000 cells/mL. 400 μL of the cell suspension were filled in the matrigel coated wells, and a solution of the inhibitor was added to the intended final concentration. The plates were incubated at 37° C. with 5% CO2 for 16-18 h. Media was removed, and the matrigel surface was washed twice with 500 μL PBS before cells were labeled with 250 μL 8 μM Calcein AM (Pierce, Rockford, Ill.) in PBS for 30 min at 37° C. After two additional washing steps (500 μL PBS) cells were visualized under an inverted microscope. Fluorescence was excited at 488 nm and recorded at 538 nm. The minimum effect concentration was defined as the minimal inhibitor concentration that caused a definite disturbance of the complexity of the formed tube network.

[4] = test system: HUVECs (human umbilical vein endothelial cells); experiment: Boyden chamber cell migration assay with HUVECs; assay type: cell-based; conditions: chamber cell migration; average of three experiments; read-out: IC50 (HUVEC)
Protocol: Chamber Cell Migration Assay (Tables 4 and 6): Cell migrations were assayed with Boyden chambers [8.0 μm pore size, polyethylene terephthalate membrane, FALCON cell culture insert (Becton-Dickinson)]. 4T1 mouse breast tumor cells or HUVECs were trypsinized and counted. 300 μl of 5-10×10^4 cells in serum-free medium was added to the upper chamber and 500 μl of medium with 10% fetal bovine serum (FBS) was added to the lower chamber. The transwells were incubated for 6-8 h at 37° C. with different concentrations of chemical compound in both upper and lower chamber. Cells on the inside of the transwell inserts were removed with a cotton swab, and cells on the underside of the insert were fixed and stained. Photographs of three random regions were taken and the number of cells was counted to calculate the average number of cells that have transmigrated.

[5] = test system: 4T1 tumor lung metastasis; experiment: 4T1 tumor lung metastasis in syngeneic mice (6-thioguanine clonogenic assay); assay type: in vivo, BALB/c mice; conditions: for lung metastasis colonies: lungs Day 28, mean and standard deviation
Description: Inhibition of metastasis of mouse breast tumors by migrastatin alogs in mice. 4T1 mouse breast tumor cell line was isolated from a single spontaneously arising mammary tumor from a BALB/BfC3H mouse (MMTV+).^62 The 4T1 tumor closely mimics human breast cancer in its anatomical site, immunogenecity, growth characteristics, and metastatic properties.^63 From the mammary gland, 4T1 tumor spontaneously metastasizes to a variety of target organs including the lung, bone, brain, and liver through primarily a hematogenous rout.^64
To assess the efficacy of therapeutic application of migrastatin analogs in the 4T1 murine mammary carcinoma models, we administered migrastatin analogs (macroketone and macrolactam) to BALB/c mice carrying the 4T1 tumors.
Female BALB/c mice (6-8 week old) were purchased from the Jackson Laboratory (Bar Harbor, Me.). All mice were housed at the Weill Medical College of Cornell University Animal Facilities in accordance with the Principles of Animal Care (NIH publication no. 85-23, revised 1985). 4T1 tumor cells (1×10^5) were injected subcutaneously into the abdominal mammary gland area of mice in 0.1 ml of a single-cell suspension in phosphate buffered saline (PBS) on Day 0. The dosage of tumor implantation was empirically determined to give rise to tumor of ˜10 mm in diameter in untreated wild type mice in 21-23 days. On Day 7, when the tumors averaged in size ˜4-5 mm in diameter, migrastatin analogs or control PBS saline were given every day by intraperitoneal injection at 10 mg/kg or 20 mg/kg per mouse until Day 25. On Day 28, the mice were sacrificed. This regiment of migrastatin analogs was well tolerated with no signs of overt toxicity. Every group included five mice. Primary tumors were measured using electronic calipers on the day when the mice were sacrificed. Tumor size was the square root of the product of two perpendicular diameters. Numbers of metastatic 4T1 cells in lung were determined by the clonogenic assay.^63 In brief, lungs were removed from each mouse on Day 28, finely minced and digested in 5 ml of enzyme cocktail containing 1× PBS and 1 mg/ml collagenase type IV for 2 hours at 37° C. on a platform rocker. After incubation, samples were filtered through 70 uM nylon cell strainers and washed twice with PBS. Resulting cells were suspended and plated serially diluted in 10 cm tissue culture dishes in medium RPMI1640 containing 60 uM thioguanine for clonogenic growth. 6-Thioguanine-resistant tumor cells formed foci after 14 days, at which time they were fixed with methanol and stained with 0.03% methylene blue for counting.
Treatment 4T1 tumor lung metaotmis in smgencie mice with Kigrastatin analogs (See, FIG. 4). 4T1 tumor cells (10^5) were injected s.c. in the abdominal mammary gland with 0.1 ml of a single-cell suspension. Macroketone or macrolactam at 10 mg/kg or 20 mg/kg was given i.p. on Day 7 when the tumor size was about 5 mm in diameter, and everyday until Day 25. On Day 28, the mice were sacrificed. Each group comprised five mice. Lung metastasis was measured by the 6-thiogunine clonogenic assay. The mean and standard deviation are presented. In the control group (daily PBS injection), there were 61300±18900 colonies.

[6] = Mouse plasma stability study (HPLC); assay type: in vitro ADME
Protocol: Mouse Plasma Stability Studies (Table 5): HPLC conditions: The sample is injected and separated using an Inertsil ODS3 6u 3×150 mm column with a mobile phase of MeCN and water (50% for migrastatin) at a flow of 0.4 mL/min, monitored at 220 nm at 0.02 AUFS (the retention time for migrastatin is ca. 4 min, the identity of this peak was confirmed by mass spectral analysis). Incubation and sample preparation conditions: A solution (ca. 30 mM) of chemical compound (Table 5) in DMSO is prepared. 2 μL of the solution is added to a mixture containing 200 μL of mouse plasma and 800 μL of PBS. The resulting solution is put into a water bath at 37° C., and 100 μL of sample is withdrawn at 10, 20, 30, 45, and 60 min. The precipitate is removed by centrifugation and 20 μL of the supernatant is injected onto the HPLC.

Compound: CO[C@H]1C=CCC/C=C/C(=O)O[C@H]([C@H](C)C(=O)CCCC2CC(=O)NC(=O)C2)/C(C)=C\[C@@H](C)[C@@H]1O[Si](C)(C)C(C)(C)C
ring closure, yield of all isomers ([1]; from C=CCC/C=C/C(=O)O[C@@H](/C(C)=C\[C@@H](C)[C@H](O[Si](C)(C)C(C)(C)C)[C@H](C=C)OC)[C@H](C)C(=O)CCCC1CC(=O)NC(=O)C1, 0.46 mM): 69%

Compound: CO[C@H]1C=CCCCCC(=O)NC/C(C)=C\[C@@H](C)[C@@H]1O[Si](C)(C)C(C)(C)C
ring closure, yield of all isomers ([1]; from C=CCCCCC(=O)NC/C(C)=C\[C@@H](C)[C@H](O[Si](C)(C)C(C)(C)C)[C@H](C=C)OC, 0.709 mM): 60%

Compound: CO[C@H]1C=CCCCCC(=O)O[C@H]([C@H](C)C(=O)CCCC2CC(=O)NC(=O)C2)/C(C)=C\[C@@H](C)[C@@H]1O[Si](C)(C)C(C)(C)C
ring closure, yield of all isomers ([1]; from C=CCCCCC(=O)O[C@@H](/C(C)=C\[C@@H](C)[C@H](O[Si](C)(C)C(C)(C)C)[C@H](C=C)OC)[C@H](C)C(=O)CCCC1CC(=O)NC(=O)C1, 0.48 mM): 79%

IC50 [2]: 10000 nM
Compound: COC1C=CCCCCC(=O)OC(C(C)C(=O)CCCC2CC(=O)NC(=O)C2)C(C)=CC(C)C1O (centres unmarked) [2,3-dihydromigrastatin (41), 2,3-Dihydromigrastatin]
Minimum effect concentration [3]: 25 µM
Minimum effect concentration (HUVEC): 50 µM

IC50 [2]: 192 nM
Compound: CO[C@H]1/C=C/CCCCC(=O)OC/C(C)=C\[C@@H](C)[C@@H]1OC(C)=O [acetylated macrolactone (49), Acetylated Macrolactone]

Compound: CN1c2ccccc2C(=O)N2CCc3c([nH]c4ccccc34)[C@H]21 [evodiamine, reference compound]
IC50 ([2]; Mus musculus): 315 nM

IC50 [2]: 378 nM
Compound: CO[C@@H](/C=C/CCCCC(=O)O)[C@@H](O)[C@H](C)/C=C(/C)CO [hydrolyzed core (51), Hydrolyzed Core]

IC50 [2]: 101 nM
Compound: CO[C@H]1/C=C/CCCCC(O)(C(F)(F)F)CC/C(C)=C\[C@@H](C)[C@@H]1O (some centres unmarked) [macrocyclic CF3-alcohol (71), Macrocyclic CF3-Alcohol]
effect on 4T1 tumor cell migration in the chamber assay, in words ([2]; chamber assay): displays the same activity profile as macroketone 60

IC50 [2]: 8900 nM
Compound: CO[C@H]1/C=C/CCCCC(O)CC/C(C)=C\[C@@H](C)[C@@H]1O (some centres unmarked) [macrocyclic secondary alcohol (69), Macrocyclic Secondary Alcohol]

IC50 [2]: 3100 nM
Compound: CO[C@H]1/C=C/CCCCC(C)(O)CC/C(C)=C\[C@@H](C)[C@@H]1O (some centres unmarked) [macrocyclic tertiary alcohol (70), Marocyclic Tertiary Alcohol]

IC50 [2]: 255 nM
Compound: COC1C=CCCCCC(=O)NCC(C)=CC(C)C1O (centres unmarked) [macrolactam (55), Macrolactam]
IC50 [4]: 18000 nM
inhibition of lung metastasis ([5]; 10 mg/kg i.p. daily Day 7-25): ~91%
lung metastasis colonies ([5]; 10 mg/kg i.p. daily Day 7-25): 5333±1778 colonies
inhibition of lung metastasis ([5]; 20 mg/kg i.p. daily Day 7-25): ~91%
lung metastasis colonies ([5]; 20 mg/kg i.p. daily Day 7-25): 5675±6263 colonies

IC50 [2]: 2300 nM
Compound: CO[C@H]1/C=C/CCCCC(=NO)CC/C(C)=C\[C@@H](C)[C@@H]1O [macrooxime (72), Macrooxime]

Compound: COC1C=CCCC=CC(=O)OCC(C)=CC(C)C1O (centres unmarked) [migrastatin core (45), Migrastatin Core]
IC50 [4]: 150 nM
stability (t1/2, mouse plasma) ([6]; mouse plasma/PBS, 37° C., sampled up to 60 min): 20 min
stability (mouse plasma), in words ([6]; stable = intensity of HPLC signal unchanged over 60 min of incubation): hydrolyzed rapidly

IC50 [2]: 7000 nM
Compound: N-Methyl-2,3-Dihydromigrastatin [N-methyl-2,3-dihydromigrastatin (42)]

Compound: N-Methyl-migrastatin
Minimum effect concentration [3]: 100 µM
Minimum effect concentration (HUVEC): 200 µM
